Inhibition and IC50 data for 61 molecules are collected here from ChEMBL document CHEMBL1165848, “Discovery of new cholesteryl ester transfer protein inhibitors via ligand-based pharmacophore modeling and QSAR analysis followed by synthetic exploration” (Eur J Med Chem, 2010).

For experiment [1], the target named is T1, Cholesteryl ester transfer protein (Oryctolagus cuniculus) (UniProt P22687).
T1 sequence (whole entry): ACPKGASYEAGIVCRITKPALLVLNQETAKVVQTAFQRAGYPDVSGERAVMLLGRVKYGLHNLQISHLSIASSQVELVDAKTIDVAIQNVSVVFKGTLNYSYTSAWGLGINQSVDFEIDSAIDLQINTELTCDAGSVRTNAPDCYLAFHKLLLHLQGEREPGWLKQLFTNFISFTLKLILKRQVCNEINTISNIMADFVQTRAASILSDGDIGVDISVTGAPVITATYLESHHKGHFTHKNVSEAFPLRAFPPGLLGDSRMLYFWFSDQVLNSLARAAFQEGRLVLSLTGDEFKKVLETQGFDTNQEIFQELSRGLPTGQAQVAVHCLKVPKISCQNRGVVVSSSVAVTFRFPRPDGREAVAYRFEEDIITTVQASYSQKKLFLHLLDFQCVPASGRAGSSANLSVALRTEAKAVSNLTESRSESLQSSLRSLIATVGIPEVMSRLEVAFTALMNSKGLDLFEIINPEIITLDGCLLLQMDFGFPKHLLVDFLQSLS
In words: Inhibition of CETP in rabbit serum at 10 uM after 1 hr by fluorescent cholesteryl esters transfer assay.

For experiment [2], the target named is T2, Cholesteryl ester transfer protein (Oryctolagus cuniculus, UniProt P22687).
T2 sequence (P22687 whole entry): T1 sequence (whole entry)
Description: Inhibition of CETP in rabbit serum after 1 hr by fluorescent cholesteryl esters transfer assay. Conditions: read-out: IC50.

The term inhibition denotes the drop in the measured response relative to a control, in per cent. For the molecule `N=C(Nc1cccc2ccccc12)SCCCSC(=N)Nc1cccc2ccccc12`, in experiment [1], the inhibition is 0%. On the same count and under the same terms, the same measure for `Cc1ccc(Nc2ccc(Nc3ccc(C)cc3)c3c2C(=O)c2cccc(O)c2C3=O)cc1`: 14%. The molecule `Cc1ccc(NC(=O)c2ccc(C(=O)Nc3ccc(C)c(Cl)c3)cc2)cc1Cl` showed an inhibition in experiment [1] of 0%. For `COc1ccc(C(=O)c2ccc(/N=C/c3ccc(C(C)(C)C)cc3)cc2)c(OC)c1`, in experiment [1], the inhibition was found to be 24.9%. The same measure, in the same setting: the same measure for `CCCCOc1ccc(NC(=N)Nc2ccc(Cl)cc2)cc1`: 0%; for `COc1ccc(C(=O)c2ccc(/N=C/c3ccc(C(F)(F)F)cc3)cc2)c(OC)c1`: 15.4%. Take `O=C(Nc1ccc2c(c1)CCC2)c1ccc(C(=O)Nc2ccc3c(c2)CCC3)cc1`: in experiment [1], the inhibition was 0%. The same measure, in the same setting: the same measure for `COc1ccc(/C=N/c2ccc(C(=O)c3ccc(OC)cc3OC)cc2)cc1`: 19.5%; for `OC(COc1c(Cl)cc(Cl)cc1Cl)COc1c(Cl)cc(Cl)cc1Cl`: 0%; for `CCN(CC)Cc1cc(Nc2ccnc3cc(Cl)ccc23)ccc1O`: 18.6%. Still for that read-out and setting: the same measure for `CCOc1cc(C2SCC(=O)N2c2ccc(Oc3ccc(Cl)cc3)c(Cl)c2)ccc1O` (stereo unspecified): 6.7%; for `Cc1ccc(S(=O)(=O)Nc2cccc3c(NS(=O)(=O)c4ccc(C)cc4)cccc23)cc1`: 0%. The molecule `CC(C)[C@H](Nc1ccc(C(F)(F)F)cc1Cl)C(=O)OC(C#N)c1cccc(Oc2ccccc2)c1` (stereo partly specified) gave an inhibition in experiment [1] of 0%. The same measure, in the same setting: the same measure for `OC1=C2Nc3ccc(Cl)cc3N=C2OC1c1c[nH]c2ccc(COc3ccccc3)cc12` (stereo unspecified): 9.1%. Turning to `N=c1[nH]c(=O)n(CCCOc2cccc(Cl)c2)cc1-c1ccc(Cl)c(Cl)c1`, the inhibition in experiment [1] came out at 0%. Still for that read-out and setting: the same measure for `CC(C)(C)c1ccc(C(O)CCCN2CCC(C(O)(c3ccccc3)c3ccccc3)CC2)cc1` (stereo unspecified): 0%. The molecule `O=C(NC(=O)c1c(F)cccc1F)Nc1ccc(Cl)c(Oc2ncc(C(F)(F)F)cc2Cl)c1` gave an inhibition in experiment [1] of 0%. Same read-out and setting: the same measure for `O=C(NCCCOc1ccc(Cl)c(Cl)c1)NCCc1ccc(Cl)c(Cl)c1`: 0%; for `CCOc1ccc(/N=C/c2ccc(O)c(OC)c2)c(O)c1`: 25.5%. On the same count and under the same terms, the same measure for `COc1ccc(OCCCn2cc(-c3ccc(Cl)c(Cl)c3)c(=N)[nH]c2=O)cc1`: 0%; for `COc1ccc(CCN2CCC(Nc3nc4ccccc4n3Cc3ccc(F)cc3)CC2)cc1`: 20.8%; for `CCCCOc1ccc2nccc(N/N=C/c3ccc(OC)c4ccccc34)c2c1`: 25.4%. For `CC(C)OC(=O)CCC/C=C\C[C@@H]1[C@@H](CC[C@@H](O)CCc2ccccc2)[C@H](O)C[C@@H]1O`, the inhibition in experiment [1] was 11.4%. Same read-out and setting: the same measure for `O=c1oc2ccccc2c(O)c1C(CC(O)c1ccc(-c2ccc(Br)cc2)cc1)c1ccccc1` (stereo unspecified): 0%. The same measure, in the same setting: the same measure for `Clc1ccc2c(NCCCC/N=C/c3ccccc3)cccc2c1`: 0%; for `O=C(c1ccc(/N=C/c2cccc(C(F)(F)F)c2)cc1)c1ccc(-c2ccccc2)cc1`: 9.8%; for `CN(CN(C)/N=C\c1ccc(Cl)cc1)/N=C\c1ccc(Cl)cc1`: 0%. Same read-out and setting: the same measure for `Cc1cc[n+](CC(=O)CCc2ccc(C(=O)C[n+]3ccc(C)cc3)cc2)cc1`: 6%. For `N=c1[nH]c(=O)n(CCCOc2ccccc2)cc1-c1ccc(Cl)c(Cl)c1`, in experiment [1], the inhibition stood at 0%. Molecule `Cc1ccc(Nc2ccc(Nc3ccc(C)cc3)c3c2C(=O)c2cc(Cl)c(Cl)cc2C3=O)cc1` yielded an inhibition in experiment [1] of 20.8%. On to `COc1ccc2nc3cc(Cl)ccc3c(Nc3ccc(C(O)CCn4cccc4)cc3)c2c1` (stereo unspecified), for which, in experiment [1], the inhibition stood at 13.4%.

In the case of `O=C(COc1cccc(Cl)c1)Nc1cccc(CN2C(=O)c3ccccc3C2=O)c1`, in experiment [1], the inhibition came to 0%. In the case of `CC(C)OC(=O)CCC/C=C\C[C@@H]1[C@@H](/C=C/[C@@H](O)COc2cccc(C(F)(F)F)c2)[C@H](O)C[C@@H]1O`, the inhibition in experiment [1] stood at 0%. Still for that read-out and setting: the same measure for `Cc1cc2c(cc1C)NC1=C(O)C(c3c[nH]c4ccc(COc5ccccc5)cc34)OC1=N2` (stereo unspecified): 0%. On the same count and under the same terms, the same measure for `COc1cccc(/C=N/c2ccc(C(=O)c3ccc(OC)cc3OC)cc2)c1`: 23.7%. The same measure, in the same setting: the same measure for `O=C(Nc1ccc(Cl)cc1C(F)(F)F)Oc1ccc(OCc2ccccc2)cc1`: 22.1%; for `O=C(CCCCC(=O)Nc1c(I)cc(I)c(C(=O)O)c1I)Nc1c(I)cc(I)c(C(=O)O)c1I`: 15.9%; for `COc1ccc(C(=O)c2cccc(/N=C/c3ccccc3)c2)cc1`: 12.6%. In experiment [1], `COc1ccc(C(=O)c2ccc(/N=C/c3cccc(C(F)(F)F)c3)cc2)c(OC)c1` yielded an inhibition of 14.9%. On the same count and under the same terms, the same measure for `O=C(c1ccccc1)c1cc(Cl)ccc1NCC(O)COc1ccc(Cl)cc1` (stereo unspecified): 8.1%; for `CC(C)(C(=O)O)c1ccc(C(O)CCCN2CCC(C(O)(c3ccccc3)c3ccccc3)CC2)cc1` (stereo unspecified): 0%. Still for that read-out and setting: the same measure for `Cc1cc(Cl)c(Cl)cc1NC(=O)c1cccc(C(=O)Nc2cc(Cl)c(Cl)cc2C)c1`: 0%; for `COc1ccc(/N=C/c2ccc(N(CCC#N)S(=O)(=O)c3ccccc3)cc2)cc1`: 0%. By IC50 is commonly meant the concentration that inhibits the measured activity by half. `OC(CN(Cc1ccccc1C(F)(F)F)c1cccc(F)c1)C(F)(F)F` (stereo unspecified): the IC50 in experiment [2] was over 100000 nM.

Take `COC(=O)c1cccc(CN(CC(O)C(F)(F)F)c2cccc(Oc3ccccc3)c2)c1` (stereo unspecified): the 50% inhibitory concentration (IC50) in experiment [2] is 16000 nM. The same measure, in the same setting: the same measure for `CC(C)(C)Oc1cccc(CN(CC(O)C(F)(F)F)c2cccc(Oc3ccccc3)c2)c1` (stereo unspecified): 660 nM; for `Cc1ccccc1N(Cc1cccc(C(F)(F)F)c1)CC(O)C(F)(F)F` (stereo unspecified): over 100000 nM.

As to `OC(CN(Cc1cccc(C(F)(F)F)c1)c1cccc(C(F)(F)F)c1)C(F)(F)F` (stereo unspecified), the IC50 in experiment [2] was 10000 nM. Consider `CC(C)(O)c1cccc(CN(CC(O)C(F)(F)F)c2cccc(Oc3ccccc3)c2)c1` (stereo unspecified), for which the IC50 in experiment [2] was found to be 7800 nM.

Take `OC(CN(Cc1cccc(OC(F)(F)C(F)F)c1)c1cccc(Oc2ccc(Cc3ccccc3)cc2)c1)C(F)(F)F` (stereo unspecified): the concentration for half-maximal inhibition (IC50) in experiment [2] worked out at 2400 nM. Regarding `CCc1cc(Oc2cccc(N(Cc3cccc(C(F)(F)C(F)(F)F)c3)C[C@@H](O)C(F)(F)F)c2)ccc1Cl`, the IC50 in experiment [2] was determined as 45 nM.

With `OC(CN(Cc1cccc(OC(F)(F)C(F)F)c1)c1cccc(OCc2cccc(C(F)(F)F)c2)c1)C(F)(F)F` (stereo unspecified), the IC50 in experiment [2] was 90 nM. As for `OC(CN(Cc1cccc(OC(F)(F)C(F)F)c1)c1cccc(Oc2ccc(Cl)c(Cl)c2)c1)C(F)(F)F` (stereo unspecified), in experiment [2], the IC50 is 80 nM. Consider `OC(CN(Cc1cccc(OC(F)(F)C(F)F)c1)c1cccc(Oc2cccc(F)c2)c1)C(F)(F)F` (stereo unspecified), for which the IC50 in experiment [2] was determined as 300 nM. Still for that read-out and setting: the same measure for `Cc1cc(C)cc(Oc2cccc(N(Cc3cccc(OC(F)(F)C(F)F)c3)CC(O)C(F)(F)F)c2)c1` (stereo unspecified): 70 nM; for `COc1cccc(Oc2cccc(N(Cc3cccc(OCC(O)C(F)(F)F)c3)CC(O)C(F)(F)F)c2)c1` (stereo unspecified): 1300 nM. Same read-out and setting: the same measure for `Cc1ccc(Oc2cccc(N(Cc3cccc(OC(F)(F)C(F)F)c3)C[C@@H](O)C(F)(F)F)c2)cc1`: 8.1 nM. Still for that read-out and setting: the same measure for `OC(CN(Cc1cccc(C(F)(F)F)c1)c1ccccc1)C(F)(F)F` (stereo unspecified): 15000 nM; for `Cc1ccc(N(Cc2cccc(C(F)(F)F)c2)CC(O)C(F)(F)F)cc1` (stereo unspecified): over 100000 nM; for `Cc1cccc(N(Cc2cccc(C(F)(F)F)c2)CC(O)C(F)(F)F)c1` (stereo unspecified): 10000 nM.

Turning to `CC(C)c1ccc(Oc2cccc(N(Cc3cccc(OC(F)(F)C(F)F)c3)CC(O)C(F)(F)F)c2)cc1` (stereo unspecified), the IC50 in experiment [2] was 400 nM.
